Test system: SUM149PT spheroids with HUVEC/MSC, viability
Assay: Anticancer human tumor SUM149PT cell line growth inhibition [GQUAD];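 note: spheroids exposed to drugs for seven days before readout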;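 for viability, T/C: percent viability relative to DMSO vehicle control taken as 100%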
Conditions: for IC50: curve of first compound; for viability, T/C: stronger effect = lower value
Method in brief: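 Multi-cell-type spheroids of tumor cells with HUVEC and mesenchymal stem cells, treated with drug combinations. Concentrations descend in half-log steps from near clinical Cmax, or from 10 microM where Cmax is unknown; viability read-out.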

[1] = second compound 0.0316 µM, first compound 0.0316 µM
[2] = second compound 0.0316 µM, first compound 0.1 µM
[3] = second compound 0.0316 µM, first compound 0.316 µM
[4] = second compound 0.0316 µM, first compound 1 µM
[5] = second compound 0.0316 µM, first compound 3.16 µM
[6] = second compound 0.0316 µM, first compound 10 µM
[7] = second compound 0.1 µM, first compound 0.0316 µM
[8] = second compound 0.1 µM, first compound 0.1 µM
[9] = second compound 0.1 µM, first compound 0.316 µM
[10] = second compound 0.1 µM, first compound 1 µM
[11] = second compound 0.1 µM, first compound 3.16 µM
[12] = second compound 0.1 µM, first compound 10 µM
[13] = second compound 0.316 µM, first compound 0.0316 µM
[14] = second compound 0.316 µM, first compound 0.1 µM
[15] = second compound 0.316 µM, first compound 0.316 µM
[16] = second compound 0.316 µM, first compound 1 µM
[17] = second compound 0.316 µM, first compound 3.16 µM
[18] = second compound 0.316 µM, first compound 10 µM
[19] = second compound 1 µM, first compound 0.0316 µM
[20] = second compound 1 µM, first compound 0.1 µM
[21] = second compound 1 µM, first compound 0.316 µM
[22] = second compound 1 µM, first compound 1 µM
[23] = second compound 1 µM, first compound 3.16 µM
[24] = second compound 1 µM, first compound 10 µM
[25] = second compound 3.16 µM, first compound 0.0316 µM
[26] = second compound 3.16 µM, first compound 0.1 µM
[27] = second compound 3.16 µM, first compound 0.316 µM
[28] = second compound 3.16 µM, first compound 1 µM
[29] = second compound 3.16 µM, first compound 3.16 µM
[30] = second compound 3.16 µM, first compound 10 µM
[31] = second compound 10 µM, first compound 0.0316 µM
[32] = second compound 10 µM, first compound 0.1 µM
[33] = second compound 10 µM, first compound 0.316 µM
[34] = second compound 10 µM, first compound 1 µM
[35] = second compound 10 µM, first compound 3.16 µM
[36] = second compound 10 µM, first compound 10 µM

Q: Which results are given for `O=C(c1cc(Cc2n[nH]c(=O)c3ccccc23)ccc1F)N1CCN(C(=O)C2CC2)CC1` + Cc1cnc(CNC(=O)c2c(=O)c3ccc(N4CCCN(C)CC4)nc3n3c2sc2ccccc23)cn1?
A: IC50 (second compound 0.0316 µM): 9980 nM; IC50 (second compound 0.1 µM): > 10000 nM; IC50 (second compound 0.316 µM): 5010 nM; IC50 (second compound 1 µM): < 31.6 nM; IC50 (second compound 3.16 µM): < 31.6 nM; IC50 (second compound 10 µM): < 31.6 nM; viability, T/C [1]: 87.6%; viability, T/C [2]: 72.1%; viability, T/C [3]: 83.3%; viability, T/C [4]: 88.3%; viability, T/C [5]: 80.2%; viability, T/C [6]: 50%; viability, T/C [7]: 63.6%; viability, T/C [8]: 70.1%; viability, T/C [9]: 65.8%; viability, T/C [10]: 66.4%; viability, T/C [11]: 61.4%; viability, T/C [12]: 44.5%; viability, T/C [13]: 53.2%; viability, T/C [14]: 58.5%; viability, T/C [15]: 55.4%; viability, T/C [16]: 54.5%; viability, T/C [17]: 53.6%; viability, T/C [18]: 44%; viability, T/C [19]: 43%; viability, T/C [20]: 47%; viability, T/C [21]: 47.1%; viability, T/C [22]: 48.4%; viability, T/C [23]: 48.5%; viability, T/C [24]: 42.7%; viability, T/C [25]: 35.4%; viability, T/C [26]: 42.2%; viability, T/C [27]: 40.3%; viability, T/C [28]: 38.7%; viability, T/C [29]: 39.5%; viability, T/C [30]: 37.6%; viability, T/C [31]: 10.2%; viability, T/C [32]: 12.1%; viability, T/C [33]: 27.6%; viability, T/C [34]: 30.5%; viability, T/C [35]: 22.6%; viability, T/C [36]: 2.16%

Q: Which results are given for `CCc1c2c(nc3ccc(O)cc13)-c1cc3c(c(=O)n1C2)COC(=O)[C@]3(O)CC` + Cc1cnc(CNC(=O)c2c(=O)c3ccc(N4CCCN(C)CC4)nc3n3c2sc2ccccc23)cn1?
A: IC50 (second compound 0.0316 µM): < 0.999 nM; IC50 (second compound 0.1 µM): < 0.999 nM; IC50 (second compound 0.316 µM): < 0.999 nM; IC50 (second compound 1 µM): < 0.999 nM; IC50 (second compound 3.16 µM): < 0.999 nM; IC50 (second compound 10 µM): < 0.999 nM; viability, T/C (second compound 0.0316 µM, first compound 0.000999 µM): 45%; viability, T/C (second compound 0.0316 µM, first compound 0.00316 µM): 30.6%; viability, T/C (second compound 0.0316 µM, first compound 0.00999 µM): 42.1%; viability, T/C [1]: 30.6%; viability, T/C (second compound 0.0316 µM, first compound 0.0999 µM): 25.9%; viability, T/C [3]: 12.1%; viability, T/C (second compound 0.1 µM, first compound 0.000999 µM): 38.9%; viability, T/C (second compound 0.1 µM, first compound 0.00316 µM): 40.9%; viability, T/C (second compound 0.1 µM, first compound 0.00999 µM): 44.6%; viability, T/C [7]: 38.9%; viability, T/C (second compound 0.1 µM, first compound 0.0999 µM): 25.1%; viability, T/C [9]: 10.2%; viability, T/C (second compound 0.316 µM, first compound 0.000999 µM): 38.7%; viability, T/C (second compound 0.316 µM, first compound 0.00316 µM): 42.8%; viability, T/C (second compound 0.316 µM, first compound 0.00999 µM): 41.1%; viability, T/C [13]: 33.8%; viability, T/C (second compound 0.316 µM, first compound 0.0999 µM): 21.8%; viability, T/C [15]: 10.8%; viability, T/C (second compound 1 µM, first compound 0.000999 µM): 37%; viability, T/C (second compound 1 µM, first compound 0.00316 µM): 41.2%; viability, T/C (second compound 1 µM, first compound 0.00999 µM): 37.1%; viability, T/C [19]: 35.5%; viability, T/C (second compound 1 µM, first compound 0.0999 µM): 19.7%; viability, T/C [21]: 8.28%; viability, T/C (second compound 3.16 µM, first compound 0.000999 µM): 33.1%; viability, T/C (second compound 3.16 µM, first compound 0.00316 µM): 38.7%; viability, T/C (second compound 3.16 µM, first compound 0.00999 µM): 37.1%; viability, T/C [25]: 31%; viability, T/C (second compound 3.16 µM, first compound 0.0999 µM): 21.9%; viability, T/C [27]: 3.55%; viability, T/C (second compound 10 µM, first compound 0.000999 µM): 0.16%; viability, T/C (second compound 10 µM, first compound 0.00316 µM): 3.09%; viability, T/C (second compound 10 µM, first compound 0.00999 µM): 0.98%; viability, T/C [31]: 1.56%; viability, T/C (second compound 10 µM, first compound 0.0999 µM): 1.51%; viability, T/C [33]: 1.72%

Q: Which results are given for `CCCS(=O)(=O)Nc1ccc(F)c(C(=O)c2c[nH]c3ncc(-c4ccc(Cl)cc4)cc23)c1F` + Cc1cnc(CNC(=O)c2c(=O)c3ccc(N4CCCN(C)CC4)nc3n3c2sc2ccccc23)cn1?
A: IC50 (second compound 0.0316 µM): 5870 nM; IC50 (second compound 0.1 µM): 3100 nM; IC50 (second compound 0.316 µM): 1450 nM; IC50 (second compound 1 µM): < 31.6 nM; IC50 (second compound 3.16 µM): < 31.6 nM; IC50 (second compound 10 µM): < 31.6 nM; viability, T/C [1]: 80%; viability, T/C [2]: 76.5%; viability, T/C [3]: 96.1%; viability, T/C [4]: 88.6%; viability, T/C [5]: 67.5%; viability, T/C [6]: 34.9%; viability, T/C [7]: 67.8%; viability, T/C [8]: 68.3%; viability, T/C [9]: 79.3%; viability, T/C [10]: 66.5%; viability, T/C [11]: 50%; viability, T/C [12]: 33.2%; viability, T/C [13]: 51.9%; viability, T/C [14]: 57.5%; viability, T/C [15]: 56.5%; viability, T/C [16]: 52.9%; viability, T/C [17]: 43.2%; viability, T/C [18]: 31%; viability, T/C [19]: 51.5%; viability, T/C [20]: 46%; viability, T/C [21]: 44.6%; viability, T/C [22]: 46.6%; viability, T/C [23]: 37.7%; viability, T/C [24]: 25.4%; viability, T/C [25]: 37.5%; viability, T/C [26]: 38%; viability, T/C [27]: 43.1%; viability, T/C [28]: 38%; viability, T/C [29]: 37%; viability, T/C [30]: 23.4%; viability, T/C [31]: 0.2%; viability, T/C [32]: 11.8%; viability, T/C [33]: 0.67%; viability, T/C [34]: 11.7%; viability, T/C [35]: 2.28%; viability, T/C [36]: 2.88%

— PubChem BioAssay AID2060484 (Molecular Pharmacology Branch, DTP, NCI, 2025)
